Data from ChEMBL document CHEMBL1151009, “Synthesis and pharmacological evaluation of combined Thromboxane receptor antagonists/thromboxane synthase inhibitors: Pyridine-containing amino-prostanoids” (Bioorg Med Chem Lett, 1991).

Experiments:
Thromboxane A2 receptor [1] = molecular target: T1, Thromboxane A2 receptor (Homo sapiens, UniProt P21731); assay: In vitro thromboxane A2 receptor antagonism through inhibition of U-46619-induced platelet aggregation in human whole blood.; format: functional, tissue-based; details: read-out: pA2 (converted)
T1 sequence (P21731 whole entry): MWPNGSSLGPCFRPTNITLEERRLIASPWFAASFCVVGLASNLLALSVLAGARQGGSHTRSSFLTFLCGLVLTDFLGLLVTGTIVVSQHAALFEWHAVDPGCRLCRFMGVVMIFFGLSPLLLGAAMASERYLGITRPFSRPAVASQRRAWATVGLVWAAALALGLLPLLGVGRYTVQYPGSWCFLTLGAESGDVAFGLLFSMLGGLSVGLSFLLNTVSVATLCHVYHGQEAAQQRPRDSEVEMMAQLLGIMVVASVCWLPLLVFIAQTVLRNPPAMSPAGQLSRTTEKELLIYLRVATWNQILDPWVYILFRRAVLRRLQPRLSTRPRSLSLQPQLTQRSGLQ

Thromboxane-A synthase = molecular target: T2, Thromboxane-A synthase (Homo sapiens, UniProt P24557); assay: In vitro TXA2 synthase antagonism through inhibition of collagen induced thromboxane-A2 production in human citreated whole blood; format: functional, tissue-based
T2 sequence (P24557 whole entry): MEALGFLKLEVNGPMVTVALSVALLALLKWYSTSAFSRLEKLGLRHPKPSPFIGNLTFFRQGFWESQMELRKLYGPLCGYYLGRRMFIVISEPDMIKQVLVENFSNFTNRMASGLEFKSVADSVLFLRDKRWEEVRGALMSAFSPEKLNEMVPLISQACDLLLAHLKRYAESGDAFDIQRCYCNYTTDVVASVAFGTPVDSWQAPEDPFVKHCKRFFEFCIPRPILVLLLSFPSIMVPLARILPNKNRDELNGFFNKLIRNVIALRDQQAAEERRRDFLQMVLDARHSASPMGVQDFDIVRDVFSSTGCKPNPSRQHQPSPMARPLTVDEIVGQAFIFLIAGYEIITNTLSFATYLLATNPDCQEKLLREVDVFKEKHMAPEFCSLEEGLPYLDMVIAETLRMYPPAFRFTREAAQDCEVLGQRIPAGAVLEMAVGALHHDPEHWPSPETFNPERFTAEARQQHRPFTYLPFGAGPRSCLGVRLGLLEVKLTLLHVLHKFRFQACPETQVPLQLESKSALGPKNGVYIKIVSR

Thromboxane A2 receptor [2] = molecular target: T3, Thromboxane A2 receptor (Rattus norvegicus, UniProt P34978); assay: In vitro thromboxane A2 receptor antagonism through inhibition of U-46619-induced contraction of rat isolated thoracic aortic strip; format: functional; details: read-out: pA2 (converted)
T3 sequence (P34978 whole entry): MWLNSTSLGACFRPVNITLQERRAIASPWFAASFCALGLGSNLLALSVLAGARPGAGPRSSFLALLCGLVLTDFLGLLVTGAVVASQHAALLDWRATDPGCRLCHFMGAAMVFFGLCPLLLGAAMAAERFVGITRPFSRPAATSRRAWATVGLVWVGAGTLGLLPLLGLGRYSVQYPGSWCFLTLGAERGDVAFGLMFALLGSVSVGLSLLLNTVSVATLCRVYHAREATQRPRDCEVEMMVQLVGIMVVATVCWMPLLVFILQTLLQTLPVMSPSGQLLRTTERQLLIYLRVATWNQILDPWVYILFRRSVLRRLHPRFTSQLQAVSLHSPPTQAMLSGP

| Kb (Thromboxane A2 receptor [1]) [nM] | IC50 (Thromboxane-A synthase) [nM] | Kb (Thromboxane A2 receptor [2]) [nM] | SMILES |
| --- | --- | --- | --- |
| 2.51 | 100 | 31.6 | CCCc1ccncc1-c1ccc(CO[C@@H]2CC[C@H](N3CCCCCC3)[C@H]2OC/C=C\CCC(=O)O)cc1 |
| 3.16 | 1580 | 12.6 | O=C(O)CC/C=C\CO[C@H]1[C@H](OCc2ccc(-c3cnccc3CO)cc2)CC[C@@H]1N1CCCCCC1 |
| 6.31 | 1580 | 20 | Cc1cnccc1-c1ccc(CO[C@@H]2CC[C@H](N3CCCCCC3)[C@H]2OC/C=C\CCC(=O)O)cc1 |
| 3.16 | > 10000 | 3.16 | O=C(O)CC/C=C\CO[C@H]1[C@H](OCc2ccc(-c3cccnc3CO)cc2)CC[C@@H]1N1CCCCCC1 |
| 3.16 | > 10000 | 3.16 | CC(C)(C)c1ccncc1-c1ccc(CO[C@@H]2CC[C@H](N3CCCCCC3)[C@H]2OC/C=C\CCC(=O)O)cc1 |
| 12.6 | 631 | 39.8 | O=C(O)CC/C=C\CO[C@H]1[C@H](OCc2ccc(-c3cccnc3)cc2)CC[C@@H]1N1CCCCCC1 |
| 3980 | 31.6 | 1260 | O=C(O)CCCCO/N=C(/c1cccnc1)c1cccc(C(F)(F)F)c1 [RIDOGREL] |

Continued, compound first:

| SMILES | Kb (Thromboxane A2 receptor [1]) [nM] | IC50 (Thromboxane-A synthase) [nM] | Kb (Thromboxane A2 receptor [2]) [nM] |
| --- | --- | --- | --- |
| CCCCc1ccncc1-c1ccc(CO[C@@H]2CC[C@H](N3CCCCCC3)[C@H]2OC/C=C\CCC(=O)O)cc1 | 3.98 | 100 | 10 |
| O=C(O)CC/C=C\CO[C@H]1[C@H](OCc2ccc(-c3cncc(CO)c3)cc2)CC[C@@H]1N1CCCCCC1 | 6.31 | > 10000 | 25.1 |
| O=C(O)CC/C=C\CO[C@H]1[C@H](OCc2ccc(-c3cnccc3CCO)cc2)CC[C@@H]1N1CCCCCC1 | 3.16 | > 10000 | 3.16 |
| O=C(O)CC/C=C\CO[C@H]1[C@H](OCc2ccc(-c3ccncc3CO)cc2)CC[C@@H]1N1CCCCCC1 | 3.16 | – | 15.8 |
| O=C(O)CC/C=C\CO[C@H]1[C@H](OCc2ccc(-c3ccncc3)cc2)CC[C@@H]1N1CCCCCC1 | 10 | 631 | 79.4 |
| Cc1ccncc1-c1ccc(CO[C@@H]2CC[C@H](N3CCCCCC3)[C@H]2OC/C=C\CCC(=O)O)cc1 | 2.51 | 100 | 31.6 |
| CCc1cnccc1-c1ccc(CO[C@@H]2CC[C@H](N3CCCCCC3)[C@H]2OC/C=C\CCC(=O)O)cc1 | 6.31 | 398 | 15.8 |
| CCc1ccncc1-c1ccc(CO[C@@H]2CC[C@H](N3CCCCCC3)[C@H]2OC/C=C\CCC(=O)O)cc1 | 1 | 2510 | 10 |
| O=C(O)CCCC/C=C(\c1ccccc1)c1cccnc1 [(E)-ISBOGREL] | 15800 | – | 6310 |
